Assay results taken from patent US20230023559A1, “ARYLMETHYLENE HETEROCYCLIC COMPOUNDS AS KV1.3 POTASSIUM SHAKER CHANNEL BLOCKERS” (D. E. Shaw Research, LLC, priority 2019, published 2023).

What was measured:
Kv1.3 potassium channel = molecular target: T1, Kv1.3 potassium channel (Homo sapiens, UniProt P22001); test: Kv1.3 potassium channel blocker activity, automated whole-cell patch clamp (Patchliner); type: cell-based; settings: CHO-K1 cells stably expressing Kv1.3; whole cell current inhibition; read-out: Kv1.3_IC50
T1 construct: expressed in transfected cells
T1 sequence (P22001 whole entry): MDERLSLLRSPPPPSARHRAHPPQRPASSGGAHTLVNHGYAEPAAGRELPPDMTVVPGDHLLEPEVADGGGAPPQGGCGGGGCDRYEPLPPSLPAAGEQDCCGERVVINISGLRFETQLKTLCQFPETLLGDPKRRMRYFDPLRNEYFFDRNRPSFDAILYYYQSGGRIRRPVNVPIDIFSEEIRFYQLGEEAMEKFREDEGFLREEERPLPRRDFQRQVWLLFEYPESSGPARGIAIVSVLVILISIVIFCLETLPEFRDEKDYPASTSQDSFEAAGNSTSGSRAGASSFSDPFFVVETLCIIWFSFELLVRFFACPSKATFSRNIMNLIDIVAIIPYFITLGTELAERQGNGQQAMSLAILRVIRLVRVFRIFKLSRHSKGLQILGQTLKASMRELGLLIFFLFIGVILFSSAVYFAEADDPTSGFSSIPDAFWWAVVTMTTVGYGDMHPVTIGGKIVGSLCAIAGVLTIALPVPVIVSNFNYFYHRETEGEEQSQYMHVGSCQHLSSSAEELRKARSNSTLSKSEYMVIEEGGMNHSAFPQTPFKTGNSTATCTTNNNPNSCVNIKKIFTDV
Method in brief: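 CHO-K1 cells stably expressing Kv1.3, automated whole-cell patch clamp. Currents evoked by 100 ms steps from −90 mV holding to +40 mV at 0.1 Hz, sampled at 10 kHz unfiltered, P/4 leak subtraction; peak current inhibition measured, compound incubation ≤10 s between pulse trains.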

hERG channel = hERG channel (Homo sapiens, UniProt Q12809); test: hERG electrophysiology, automated whole-cell patch clamp (Patchliner)
Chain of hERG channel (Q12809 whole entry): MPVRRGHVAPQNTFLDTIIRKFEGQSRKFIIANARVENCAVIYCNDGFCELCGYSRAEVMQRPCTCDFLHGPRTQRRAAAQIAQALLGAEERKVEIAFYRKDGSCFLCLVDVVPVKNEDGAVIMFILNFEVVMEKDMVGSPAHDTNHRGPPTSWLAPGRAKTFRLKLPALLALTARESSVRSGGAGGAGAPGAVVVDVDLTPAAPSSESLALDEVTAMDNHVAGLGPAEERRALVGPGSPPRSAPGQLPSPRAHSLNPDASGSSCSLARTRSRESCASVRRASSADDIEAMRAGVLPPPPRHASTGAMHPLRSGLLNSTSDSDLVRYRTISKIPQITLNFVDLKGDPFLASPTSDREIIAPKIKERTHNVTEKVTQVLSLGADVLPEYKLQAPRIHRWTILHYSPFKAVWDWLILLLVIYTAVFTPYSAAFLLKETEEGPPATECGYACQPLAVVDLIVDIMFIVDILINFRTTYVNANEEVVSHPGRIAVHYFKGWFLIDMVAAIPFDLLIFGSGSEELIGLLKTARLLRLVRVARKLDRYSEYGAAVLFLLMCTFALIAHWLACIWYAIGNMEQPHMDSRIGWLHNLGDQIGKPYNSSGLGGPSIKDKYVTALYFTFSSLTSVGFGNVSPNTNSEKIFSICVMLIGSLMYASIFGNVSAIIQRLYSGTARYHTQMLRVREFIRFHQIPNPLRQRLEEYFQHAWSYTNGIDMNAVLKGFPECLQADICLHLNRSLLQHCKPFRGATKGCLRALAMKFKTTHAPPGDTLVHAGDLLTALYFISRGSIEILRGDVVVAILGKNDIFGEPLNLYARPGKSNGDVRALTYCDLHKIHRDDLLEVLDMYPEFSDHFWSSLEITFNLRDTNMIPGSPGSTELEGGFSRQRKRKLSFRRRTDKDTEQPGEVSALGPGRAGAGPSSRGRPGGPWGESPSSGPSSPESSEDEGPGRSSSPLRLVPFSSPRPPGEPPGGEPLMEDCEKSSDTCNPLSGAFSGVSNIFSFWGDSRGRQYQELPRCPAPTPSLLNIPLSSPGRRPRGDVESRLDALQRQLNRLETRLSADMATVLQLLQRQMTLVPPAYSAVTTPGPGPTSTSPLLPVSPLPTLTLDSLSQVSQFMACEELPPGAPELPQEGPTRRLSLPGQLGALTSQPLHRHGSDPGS

IC50 (Kv1.3 potassium channel) [µM]	SMILES	IC50 (hERG channel) [µM]
< 0.5	Cn1cc(C(=O)N2CCC([C@@H](N)c3cc(Cl)c(Cl)cc3O)CC2)ccc1=O [Compound 232, 5-[4-[(R)-amino(4,5-dichloro-2-hydroxyphenyl)methyl]piperidine-1-carbonyl]-1-methylpyridin-2-one]	> 30
< 0.5	Cc1cc(O)c([C@H](N)C2CCN(C(=O)CO)CC2)cc1Cl [Compound 233, (R)-1-(4-(amino(5-chloro-2-hydroxy-4-methylphenyl)methyl)piperidin-1-yl)-2-hydroxyethan-1-one trifluoroacetic acid]	> 30
< 0.5	Cc1cc(O)c([C@H](N)C2CCN(C(=O)C3CNC3)CC2)cc1Cl [Compound 235, 2-[(R)-amino[1-(azetidine-3-carbonyl)piperidin-4-yl]methyl]-4-chloro-5-methylphenol trifluoroacetic acid]	> 30
< 0.5	Cc1cc(O)c([C@H](N)C2CCN(S(=O)(=O)C3CCNC3)CC2)cc1Cl (stereo partly drawn) [Compound 236, 2-[(R)-amino[1-(pyrrolidine-3-sulfonyl)piperidin-4-yl]methyl]-4-chloro-5-methylphenol Trifluoroacetic Acid]	> 30
< 0.5	Cc1cc(O)c([C@H](N)C2CCN(C(=O)[C@@H]3CCNC3)CC2)cc1Cl [Compound 237, (4-((R)-amino(5-chloro-2-hydroxy-4-methylphenyl)methyl)piperidin-1-yl)((R)-pyrrolidin-3-yl)methanone trifluoroacetic acid]	> 30
< 0.5	Cc1cc(O)c([C@H](N)C2CCN(C(=O)c3ccc4nccn4c3)CC2)cc1Cl [Compound 238, 2-[(R)-amino(1-[imidazo[1,2-a]pyridine-6-carbonyl]piperidin-4-yl)methyl]-4-chloro-5-methylphenol trifluoroacetic acid]	< 30
< 0.5	Cc1cc(O)c([C@H](N)C2CCN(C(=O)c3ccc(=O)n(C)c3)CC2)cc1Cl [Compound 239, 5-[4-[(R)-amino (5-chloro-2-hydroxy-4-methylphenyl)methyl]piperidine-1-carbonyl]-1-methylpyridin-2(1H)-one trifluoroacetic acid]	> 30
< 0.5	Cc1cc(O)c([C@H](N)C2CCN(C(=O)c3cnc4nccn4c3)CC2)cc1Cl [Compound 240, 2-[(R)-amino(1-[imidazo[1,2-a]pyrimidine-6-carbonyl]piperidin-4-yl)methyl]-4-chloro-5-methylphenol Trifluoroacetic Acid]	> 30
< 0.5	Cc1cc(O)c([C@H](N)C2CCN(C(=O)c3c[nH]c(=O)c(Cl)c3)CC2)cc1Cl [Compound 241, 5-[4-[(R)-amino (5-chloro-2-hydroxy-4-methylphenyl)methyl]piperidine-1-carbonyl]-3-chloro-1H-pyridin-2-one trifluoro-acetic acid]	> 30
< 0.5	Cc1cc(O)c([C@H](N)C2CCN(C(=O)c3ccc4nncn4c3)CC2)cc1Cl [Compound 242, (R)-[1,2,4]triazolo[4,3-a]pyridin-6-yl(4-(amino(5-chloro-2-hydroxy-4-methylphenyl)methyl)piperidin-1-yl)methanone trifluoroacetic acid]	> 30
< 0.5	COc1ccc(C(=O)N2CCC([C@@H](N)c3cc(Cl)c(C)cc3O)CC2)cn1 [Compound 243, 2-[(R)-amino[1-(6-methoxypyridine-3-carbonyl)piperidin-4-yl]methyl]-4-chloro-5-methylphenol trifluoroacetic acid]	< 30
< 0.5	Cc1cc(O)c([C@H](N)C2CCN(C(=O)[C@H](O)CO)CC2)c(F)c1Cl [Compound 244, (2R)-1-[4-[(R)-amino(3-chloro-2-fluoro-6-hydroxy-4-methylphenyl)methyl]piperidin-1-yl]-2,3-dihydroxypropan-1-one]	> 30
< 0.5	Cc1cc(O)c([C@H](N)C2CCN(C(=O)c3c[nH]c(=O)cc3Cl)CC2)cc1Cl [Compound 245, 5-[4-[(R)-amino (5-chloro-2-hydroxy-4-methylphenyl)methyl]piperidine-1-carbonyl]-4-chloro-1H-pyridin-2-one trifluoroacetic acid]	> 30
< 0.5	Cc1cc(O)c([C@H](N)C2CCN(C(=O)C3CCS(=O)(=O)CC3)CC2)cc1Cl [Compound 247, (R)-(4-(amino(5-chloro-2-hydroxy-4-methylphenyl)methyl)piperidin-1-yl)(1,1-dioxidotetrahydro-2H-thiopyran-4-yl)methanone trifluoroacetic acid]	> 30
< 0.5	Cc1cc(O)c([C@H](N)C2CCN(C(=O)c3ccc(CO)nc3)CC2)cc1Cl [Compound 248, 2-[(R)-amino([1-[6-(hydroxymethyl)pyridine-3-carbonyl]piperidin-4-yl])methyl]-4-chloro-5-methylphenol]	> 30
< 0.5	Cc1cc(O)c([C@H](N)C2CCN(C(=O)c3ccc(=O)n(CCO)c3)CC2)cc1Cl [Compound 249, 5-[4-[(R)-amino (5-chloro-2-hydroxy-4-methylphenyl)methyl]piperidine-1-carbonyl]-1-(2-hydroxyethyl) pyridin-2-one trifluoroacetic acid]	> 30
< 0.5	N[C@@H](c1c(O)cc(Cl)c(Cl)c1F)C1CCN(C(=O)c2ccc(=O)[nH]c2)CC1 [Compound 257, 5-[4-[(R)-amino(3,4-dichloro-2-fluoro-6-hydroxyphenyl)methyl]piperidine-1-carbonyl]-1H-pyridin-2-one Trifluoroacetic Acid]	> 30
< 0.5	N[C@@H](c1cc(Cl)c(Cl)cc1O)C1CCN(C(=O)[C@@H]2OCC[C@@H]2O)CC1 [Compound 260, (2R,3S)-2-[4-[(R)-amino(4,5-dichloro-2-hydroxyphenyl)methyl]piperidine-1-carbonyl]oxolan-3-ol Trifluoroacetic Acid]	> 30
< 0.5	Cc1cc(O)c([C@H](N)C2CCN(C(=O)c3c[nH]c(=O)c(C)c3)CC2)cc1Cl [Compound 262, 5-[4-[(R)-amino (5-chloro-2-hydroxy-4-methylphenyl)methyl]piperidine-1-carbonyl]-3-methyl-1H-pyridin-2-one trifluoroacetic acid]	> 30
< 10	Cc1cc(O)c([C@H](N)C2CCN(C(=O)c3c[nH]c(=O)c(Cl)c3)CC2)c(F)c1Cl [Compound 264, 5-[4-[(R)-amino(3-chloro-2-fluoro-6-hydroxy-4-methylphenyl)methyl]piperidine-1-carbonyl]-3-chloro-1H-pyridin-2-one Trifluoroacetic Acid]	> 30
< 0.5	Cc1cc(O)c([C@H](N)C2CCN(C(=O)c3ccc(=O)[nH]c3)CC2)c(F)c1Cl [Compound 272, 5-[4-[(R)-amino(3-chloro-2-fluoro-6-hydroxy-4-methylphenyl)methyl]piperidine-1-carbonyl]-1H-pyridin-2-one Trifluoroacetic Acid]	> 30
< 0.5	N[C@@H](c1cc(Cl)c(Cl)cc1O)C1CCN(C(=O)C2CNC(=O)NC2)CC1 [Compound 275, 5-[4-[(R)-amino(4,5-dichloro-2-hydroxyphenyl)methyl]piperidine-1-carbonyl]-1,3-diazinan-2-one Trifluoroacetic Acid]	> 30
